Data taken from patent US9376470B2, “Polypeptide having angiogenesis-inducing activity and antibacterial activity, and use thereof for medical purposes” (FunPep Inc., priority 2008, dated 2016).
Peptide text beside a SMILES is read from it.

Test system: human vascular endothelial cells and fibroblast cells (co-culture, Angiogenesis Kit KZ-1000)
Conditions: polypeptide 10 μg/mL, day 11 of culture
Method: Using AG30-5C as a positive control, the angiogenesis-inducing activity of SR-1 and SR-2 was measured. […] As a negative control, polypeptide-free group (Control) was used.
Cells were cultured at 37° C. under 5% CO2 in a 24-well plate using the special media to which the polypeptide was added. The medium was replaced with a medium containing the same polypeptide on day 4, day 7 and day 9 of culture. On day 11 from the beginning of the culture, the medium was removed and staining was performed using a kit for staining lumina (for CD31 antibody staining) according to the following procedure.
The primary antibody (mouse anti-human CD31 antibody) was 4000-fold diluted with a blocking solution (Dulbecco's phosphate buffered saline (PBS(−)) containing 1% BSA). To each well, 0.5 mL of this primary antibody solution was added, and the plate was incubated for 60 minutes at 37° C. After the completion of the incubation, each well was washed totally 3 times with 1 mL of the blocking solution.
Then, 0.5 mL of a secondary antibody solution (goat anti-mouse IgG/alkaline phosphatase conjugate) 500-fold diluted with the blocking solution was added to each well. The plate was incubated for 60 minutes at 37° C., and thereafter each well was washed 3 times with 1 mL of distilled water. During that period, 2 tablets of BCIP/NBT were dissolved into distilled water, and the obtained solution was filtered through a filter having a pore size of 0.2 μm to prepare a substrate solution. To each well, 0.5 mL of the prepared BCIP/NBT substrate solution was added, and the plate was incubated at 37° C. until the lumina turned to deep purple (typically for 5-10 minutes). After the completion of the incubation, each well was washed 3 times with 1 mL of distilled water. After washing, the washing solution was removed by aspiration, and the plate was left to stand and dry naturally. After drying, photographs of each well were taken under a microscope.
Each of the obtained images was quantified using an angiogenesis quantification software. Computer analysis was carried out on various parameters.

CC[C@H](C)[C@H](NC(=O)[C@H](CC(C)C)NC(=O)[C@H](CCCCN)NC(=O)[C@H](CC(C)C)NC(=O)[C@@H](N)CCSC)C(=O)N[C@@H](Cc1ccccc1)C(=O)N[C@@H](CC(C)C)C(=O)N[C@@H](Cc1c[nH]cn1)C(=O)N[C@@H](CCCNC(=N)N)C(=O)N[C@@H](CC(C)C)C(=O)N[C@@H](CCCCN)C(=O)N[C@@H](CCCNC(=N)N)C(=O)N[C@@H](CCSC)C(=O)N[C@@H](CCCNC(=N)N)C(=O)N[C@@H](CCCCN)C(=O)N[C@@H](CCCNC(=N)N)C(=O)N[C@@H](CC(C)C)C(=O)N[C@@H](CCCCN)C(=O)N[C@@H](CCCNC(=N)N)C(=O)N[C@@H](CCCCN)C(=O)N[C@@H](CC(C)C)C(=O)N[C@@H](CCCNC(=N)N)C(=O)N[C@@H](Cc1ccccc1)C(=O)N[C@@H](Cc1c[nH]c2ccccc12)C(=O)N[C@@H](Cc1c[nH]cn1)C(=O)N[C@@H](CCCNC(=N)N)C(=O)N[C@@H](CCCCN)C(=O)N[C@@H](CCCNC(=N)N)C(=O)N[C@@H](Cc1ccc(O)cc1)C(=O)N[C@@H](CCCCN)C(=O)O [AG30-5C, reference compound] (H-MLKLIFLHRLKRMRKRLKRKLRFWHRKRYK-OH; N-terminus and C-terminus assumed)
The Length of Lumina (Percentage when taking Control as 100): 119.1%
